The test system of assay [1] is dsOligo 2 (CGCAAATTTGCG) (DNA, duplex) CGCAAATTTGCG
The experiment in a line: intrinsic fluorescence titration, tight-binding linear fit. Conditions: 100 mM NaCl; 50 mM Tris-HCl, 0.1 mM EDTA, pH 7.4; oligo titrated into fixed ridinilazole.

The subject of assay [2] is poly(dA)·poly(dT) (DNA, polymer) A/T. The experiment in a line: intrinsic fluorescence titration. Conditions: 100 mM NaCl; 50 mM Tris-HCl, 0.1 mM EDTA, pH 7.4; 2 μM ridinilazole, polymer titrated.
For assay [3], the system named is dsOligo 1 (CGCGAATTCGCG) (DNA, duplex) CGCGAATTCGCG
Kind of assay: intrinsic fluorescence titration, tight-binding linear fit. Conditions: 100 mM NaCl; 50 mM Tris-HCl, 0.1 mM EDTA, pH 7.4; oligo titrated into fixed ridinilazole.

In assay [4] the test system is (poly[dG-dC])2 (DNA, polymer) GC. Kind of assay: intrinsic fluorescence titration. Conditions: 100 mM NaCl; 50 mM Tris-HCl, 0.1 mM EDTA, pH 7.4; 2 μM ridinilazole, polymer titrated.
Assay [5] deals with dsOligo 1 (CGCGAATTCGCG) (DNA, duplex) CGCGAATTCGCG
The experiment in a line: X-ray crystallography (2.2 Å). Conditions: minor groove at AATT; mixed 1:1, 4% DMSO; crystals at 14 °C.

Assay [6] concerns (poly[dA-dT])2 (DNA, polymer) AT. The experiment in a line: intrinsic fluorescence titration. Conditions: 100 mM NaCl; 50 mM Tris-HCl, 0.1 mM EDTA, pH 7.4; 2 μM ridinilazole, polymer titrated.

Data on one compound can be found in paper PMC10246881 (2023).

Turning to `c1cc(-c2nc3cc(-c4ccc5nc(-c6ccncc6)[nH]c5c4)ccc3[nH]2)ccn1`, the dissociation constant (Kd) (as a rule, the constant that tells how readily two partners part at equilibrium) in assay [1] was found to be 21.3 nM; in assay [3], 21.6 nM. In addition, the binding entry was “yes” in assay [2], “no” in assay [4], “yes” in assay [5] and “yes” in assay [6].
